Source: US20240228411A1, “Functionalization of Lightly Branched Olefin Oligomers” (ExxonMobil Chemical Patents Inc., priority 2021, published 2024)
Counter-ions that a name gives are not always drawn.

Experiments:
Assay type in all cases: physicochemical
[1] = Wetting time, skein test; details: average of three measurements; for Wetting time (1 g/L): 1 g/L surfactant; for Wetting time (2 g/L): 2 g/L surfactant
Description: Wetting time was measured by heating an aqueous mixture of the surfactant in an oven for 15-20 minutes at 50-60° C. and homogenizing regularly. 1+/−0.1 g or 2+/−0.1 g of the surfactant was weighed into a 1 L volumetric flask, and distilled water was added by portions of 200-300 mL and agitating regularly. After the resulting foam disappeared, the volume was adjusted to the 1 liter level. Skein yams were removed from their packaging and hung for a period of time before measurement. The surfactant solution was poured into a graduated cylinder (1 L), and foam was removed with a small nitrogen or air flow. The skein was folded one time. A hook was fastened with its anchor at one end of the folded skein, and at the opposite end, the skein was cut through. The cut skein was then compacted. The skein was held with the anchor and the weight above the 1-liter graduated cylinder containing the surfactant solution. A stopwatch was activated just as the skein was released into the surfactant solution. The stopwatch was stopped once the skein started to sink. The average of three measurements using fresh surfactant solution and a new skein each time is reported. Wetting results are specified in Table 5 below.

[2] = Critical micelle concentration in water, Kruss K100 tensiometer
Description: Critical micelle concentrations in water were measured using an A Kruss Laboratory K100 tensiometer. CMC values were determined using the K100 instrument's fully automated measurement method, as described further in the K100 instrument's operating manual.

[3] = Solubility in water at 25° C., visual observation; details: 2-3 hours magnetic stirring
Description: Solubility measurements were conducted in water at 25° C. Solubility was determined through visual observation after 2-3 hours of magnetic stirring of surfactant solutions having variable concentrations.

[4] = Calcium tolerance (hard water tolerance), surfactant remaining in filtrate by HPLC-ELSD; details: 25° C., 450 ppm surfactant, 420 ppm cations (3:1 Ca2+:Mg2+), overnight
Description: Calcium tolerance was measured at 25° C. using the following procedure. A surfactant solution containing 450 ppm of alcohol sulfate surfactant and 420 ppm cations (3:1 Ca^2+:Mg^2+) was prepared and allowed to stand overnight. Crystals formed during this time. The supernatant liquid was removed and passed through a 0.22 μm filter to provide a filtrate. The filtrate was then analyzed for surfactant residue. Analysis of the surfactant and salt residue was performed using an Agilent 1100 HPLC combined with SEDEX 75 evaporative light scattering detector (ELSD) using the run conditions specified in Table 4 below. Peak height was utilized to analyze surfactant concentration. Some samples were repeated in triplicate. Calcium tolerance results are specified in Table 5 below.

Structure (SMILES) | Wetting time (1 g/L) [1] | Wetting time (2 g/L) [1] | CMC [2] | Solubility at 25° C. [3] | Calcium tolerance (ppm surfactant remaining) [4]
CCCC(C)CCCC(C)CCCOS(=O)(=O)O (centres unmarked) [Isotridecyl Sulfate-2, C# = 13, 4,8-dimethylundecan-1-sulfate] | 6.1 s | 2.3 s | 0.00129 g/g | – | –
CCCCCCCCCCCCCOS(=O)(=O)[O-].[Na+] [Sodium n-Tridecyl Sulfate] | 6.3 s | 3.1 s | 0.001 g/g | <0.5% Wt. % | 11.2 ppm
